Assay results: patent publication US6737383B1, “Herbicidal oxadiazolidines” (priority 1999, dated 2004)

Assays:
[1] = tested on: rice; assay: Test B flood test rice; assay type: in vivo, Oryza sativa; conditions: Pre-emergence
Outline: (§1)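 Flood test on plants grown to the 2-leaf stage; treated plants kept in greenhouse twelve to sixteen days, then visually rated against controls on a 0 (no effect) to 10 (complete control) scale.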

[2] = tested on: surinam grass; assay: Test B pre/postemergence surinam grass; assay type: in vivo, Brachiaria decumbens
Outline: (§2)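 Response is a visual 0-to-10 score relative to untreated plants, where 0 means no effect and 10 means complete control, taken twelve to sixteen days after application. Treatments went onto soil at planting and onto foliage of 1- to 4-leaf plants, using a surfactant-containing non-phytotoxic solvent.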

[3] = tested on: giant foxtail; assay: Test B pre/postemergence giant foxtail; assay type: in vivo, Setaria faberii
Outline: as §2

[4] = tested on: morningglory; assay: Test B pre/postemergence morningglory; assay type: in vivo, Ipomoea hederacea
Outline: as §2

[5] = tested on: bedstraw; assay: Test B pre/postemergence bedstraw; assay type: in vivo, Galium aparine
Outline: as §2

[6] = tested on: purple nutsedge; assay: Test B pre/postemergence purple nutsedge; assay type: in vivo, Cyperus rotundus
Outline: as §2

[7] = tested on: crabgrass; assay: Test B pre/postemergence crabgrass; assay type: in vivo, Digitaria sanguinalis
Outline: as §2

[8] = tested on: soybean; assay: Test B pre/postemergence soybean; assay type: in vivo, Glycine max
Outline: as §2

[9] = tested on: wheat; assay: Test B pre/postemergence wheat; assay type: in vivo, Triticum aestivum
Outline: as §2

[10] = tested on: smallflower flatsedge; assay: Test B flood test smallflower flatsedge; assay type: in vivo, Cyperus difformis; conditions: Pre-emergence
Outline: as §1

[11] = tested on: rape; assay: Test B pre/postemergence rape; assay type: in vivo, Brassica napus
Outline: as §2

[12] = tested on: velvetleaf; assay: Test B pre/postemergence velvetleaf; assay type: in vivo, Abutilon theophrasti
Outline: as §2

[13] = tested on: corn; assay: Test B pre/postemergence corn; assay type: in vivo, Zea mays
Outline: as §2

[14] = tested on: wild oat; assay: Test B pre/postemergence wild oat; assay type: in vivo, Avena fatua
Outline: as §2

[15] = tested on: blackgrass; assay: Test B pre/postemergence blackgrass; assay type: in vivo, Alopecurus myosuroides
Outline: as §2

[16] = tested on: duck salad; assay: Test B flood test duck salad; assay type: in vivo, Heteranthera limosa; conditions: Pre-emergence
Outline: as §1

[17] = Rate 1000 g/ha, scale 0 to 10 (0 no effect, 10 complete control)
[18] = Rate 125 g/ha, flood test species, scale 0 to 10 where 0 is no effect and 10 is complete control
[19] = Rate 250 g/ha, flood-test species, scale 0 to 10, 0 is no effect, 10 is complete control
[20] = Rate 500 g/ha, flood test species, scale 0 to 10 (0 no effect, 10 complete control)
[21] = Postemergence, Rate 1000 g/ha, scale 0 to 10 (0 no effect, 10 complete control)
[22] = Preemergence, Rate 250 g/ha, scale of 0 to 10 where 0 is no effect and 10 is complete control
[23] = Preemergence, Rate 500 g/ha, scale of 0 to 10 where 0 is no effect and 10 is complete control
[24] = Rate 125 g/ha, Preemergence, scale of 0 to 10 where 0 is no effect and 10 is complete control
[25] = Rate 500 g/ha, Postemergence, scale 0 to 10, 0 no effect, 10 complete control
[26] = Rate 1000 g/ha, Preemergence, scale 0 to 10 (0 no effect, 10 complete control)
[27] = Rate 125 g/ha, Postemergence, scale 0 to 10

For `CCOC(=O)C(C)N(C(=O)n1oc(=O)n(-c2ccccc2C)c1=O)c1ccc(F)cc1` (stereo not shown) [Compound 247], the “Rice plant response rating” value [1, 17] was 0, the “Rice plant response rating” value [1, 18] was 0 and the “Rice plant response rating” value [1, 19] was 0. The “Rice plant response rating” value [1, 20] was 0, the “B. signalgrass plant response rating” value [2, 21] was 0 and the “B. signalgrass plant response rating” value [2, 22] was 0. For the same compound, the “Plant response rating, B. signalgrass” value [2, 23] was 0, the “B. signalgrass plant response rating” value ([2]; Rate 125 g/ha, Postemergence, scale 0 (no effect) to 10 (complete control)) was 0 and the “B. signalgrass plant response rating” value [2, 24] was 0. The “Plant response rating (0 to 10; 0 is no effect, 10 is complete control), B. signalgrass” value ([2]; Rate 250 g/ha, Postemergence) was 0, the “B. signalgrass plant response rating” value [2, 25] was 0 and the “Plant response rating, B. signalgrass” value [2, 26] was 0. For the same compound, the “Giant foxtail plant response rating” value [3, 21] was 0, the “Giant foxtail plant response rating” value [3, 22] was 2 and the “Plant response rating, Giant foxtail” value [3, 23] was 3. For the same compound, the “Giant foxtail plant response rating” value [3, 24] was 0, the “Plant response rating (0 to 10; 0 is no effect, 10 is complete control), Giant foxtail” value ([3]; Rate 250 g/ha, Postemergence) was 0 and the “Giant foxtail plant response rating” value [3, 25] was 0. For the same compound, the “Plant response rating, Giant foxtail” value [3, 26] was 7, the “Morningglory plant response rating” value [4, 21] was 4 and the “Morningglory plant response rating” value [4, 22] was 0. For the same compound, the “Plant response rating, Morningglory” value [4, 23] was 0, the “Morningglory plant response rating” value [4, 24] was 0 and the “Plant response rating (0 to 10; 0 is no effect, 10 is complete control), Morningglory” value ([4]; Rate 250 g/ha, Postemergence) was 2. For the same compound, the “Morningglory plant response rating” value [4, 25] was 2, the “Plant response rating, Morningglory” value [4, 26] was 0 and the “Bedstraw plant response rating” value [5, 21] was 0. For the same compound, the “Bedstraw plant response rating” value [5, 22] was 0, the “Plant response rating, Bedstraw” value [5, 23] was 0 and the “Bedstraw plant response rating” value [5, 27] was 0. The “Bedstraw plant response rating” value [5, 24] was 0, the “Plant response rating (0 to 10; 0 is no effect, 10 is complete control), Bedstraw” value ([5]; Rate 250 g/ha, Postemergence) was 0 and the “Bedstraw plant response rating” value [5, 25] was 0. The “Plant response rating, Bedstraw” value [5, 26] was 0, the “Nutsedge plant response rating” value [6, 21] was 0 and the “Nutsedge plant response rating” value [6, 22] was 0. For the same compound, the “Plant response rating (0 to 10; 0 is no effect, 10 is complete control), Nutsedge” value ([6]; Rate 250 g/ha, Postemergence) was 0, the “Nutsedge plant response rating” value [6, 25] was 0 and the “Crabgrass plant response rating” value [7, 21] was 0. For the same compound, the “Crabgrass plant response rating” value [7, 22] was 2, the “Plant response rating, Crabgrass” value [7, 23] was 2 and the “Crabgrass plant response rating” value [7, 24] was 0. The “Plant response rating (0 to 10; 0 is no effect, 10 is complete control), Crabgrass” value ([7]; Rate 250 g/ha, Postemergence) was 0, the “Crabgrass plant response rating” value [7, 25] was 0 and the “Plant response rating, Crabgrass” value [7, 26] was 3. The “Soybean plant response rating” value [8, 21] was 1, the “Soybean plant response rating” value [8, 22] was 0 and the “Plant response rating, Soybean” value [8, 23] was 0. The “Soybean plant response rating” value [8, 24] was 0, the “Soybean plant response rating” value [8, 25] was 0 and the “Plant response rating, Soybean” value [8, 26] was 0. The “Wheat plant response rating” value [9, 21] was 0, the “Wheat plant response rating” value [9, 22] was 0 and the “Plant response rating, Wheat” value [9, 23] was 0. The “Wheat plant response rating” value [9, 24] was 0, the “Wheat plant response rating” value [9, 25] was 0 and the “Plant response rating, Wheat” value [9, 26] was 0. For the same compound, the “S. Flatsedge plant response rating” value [10, 17] was 0, the “S. Flatsedge plant response rating” value [10, 18] was 0 and the “S. Flatsedge plant response rating” value [10, 19] was 0. The “S. Flatsedge plant response rating” value [10, 20] was 0, the “Rape plant response rating” value [11, 21] was 0 and the “Rape plant response rating” value [11, 22] was 0. The “Plant response rating, Rape” value [11, 23] was 0, the “Rape plant response rating” value [11, 24] was 0 and the “Plant response rating (0 to 10; 0 is no effect, 10 is complete control), Rape” value ([11]; Rate 250 g/ha, Postemergence) was 0. The “Rape plant response rating” value [11, 25] was 0, the “Plant response rating, Rape” value [11, 26] was 0 and the “Velvetleaf plant response rating” value [12, 21] was 0. For the same compound, the “Velvetleaf plant response rating” value [12, 22] was 0, the “Plant response rating, Velvetleaf” value [12, 23] was 0 and the “Velvetleaf plant response rating” value [12, 24] was 0. The “Velvetleaf plant response rating” value [12, 25] was 0, the “Plant response rating, Velvetleaf” value [12, 26] was 0 and the “Corn plant response rating” value [13, 21] was 0. For the same compound, the “Corn plant response rating” value [13, 22] was 0, the “Plant response rating, Corn” value [13, 23] was 0 and the “Corn plant response rating” value [13, 27] was 0. The “Corn plant response rating” value [13, 24] was 0, the “Plant response rating (0 to 10; 0 is no effect, 10 is complete control), Corn” value ([13]; Rate 250 g/ha, Postemergence) was 0 and the “Corn plant response rating” value [13, 25] was 0. The “Plant response rating, Corn” value [13, 26] was 0, the “Wild oats plant response rating” value [14, 21] was 0 and the “Wild oats plant response rating” value [14, 22] was 0. The “Plant response rating, Wild oats” value [14, 23] was 0, the “Wild oats plant response rating” value [14, 24] was 0 and the “Wild oats plant response rating” value [14, 25] was 0. The “Plant response rating, Wild oats” value [14, 26] was 0, the “Blackgrass plant response rating” value [15, 21] was 0 and the “Blackgrass plant response rating” value [15, 22] was 0. For the same compound, the “Plant response rating, Blackgrass” value [15, 23] was 0, the “Blackgrass plant response rating” value [15, 27] was 0 and the “Blackgrass plant response rating” value [15, 24] was 0. For the same compound, the “Plant response rating (0 to 10; 0 is no effect, 10 is complete control), Blackgrass” value ([15]; Rate 250 g/ha, Postemergence) was 0, the “Blackgrass plant response rating” value [15, 25] was 0 and the “Plant response rating, Blackgrass” value [15, 26] was 0. For the same compound, the “Ducksalad plant response rating” value [16, 17] was 0, the “Ducksalad plant response rating” value [16, 18] was 0 and the “Ducksalad plant response rating” value [16, 19] was 0. The “Ducksalad plant response rating” value [16, 20] was 0.
